Data published in article PMC12592502, “Unraveling the mechanisms behind the enhanced efficacy of β-lactam-based sideromycins” (Communications Biology, 2025).
Values after ≈ are worked out from the molar mass of the structure shown. Where two headings read alike, the source gives them in different places.

How the values were obtained:
A. baumannii ATCC 19606 = assay: MIC, broth microdilution (CLSI); type: cell-based, Acinetobacter baumannii; settings: for MIC ratio 0/1: 0 and 1 µg/mL supplemental iron (Table S2); for MIC ratio 1/0: 1 versus 0 µg/mL supplemental iron (peer review file table); for MIC in combination with PAβN: + 25 µg/mL PAβN
Protocol: (§1) All bacterial strains (see description and sources Table S1) were stored at −80 °C, and grown on tryptone soya agar (TSA) at 35 °C. The iron-deprived (ID)-MHBCA (cation-adjusted Muller-Hinton Broth, Becton Dickinson, Mississauga, ON, Canada) medium was prepared as reported by refs. [21],[50]. Briefly, MHBCA was treated with 10% Chelex® 50-100 mesh (Sigma) and stirred for 6 h at room temperature. The resin was removed by filtration. Divalent Ca^2+ (CaCl2), Mg^2+ (MgCl2), and Zn^2+(ZnSO4), were then added in the iron-depleted medium at 22, 12, and 1 μg/ml respectively. Finally, the pH was adjusted to 7.3, and the medium was sterilized with a 0.2-μm filter. Regular MHBCA (i.e., not treated with Chelex®) was used to compare the inhibitory activity of conjugates in iron-sufficient conditions. The resin used for Chelex treatment was always fresh and had never been regenerated, ensuring consistent iron removal.
(§2) Minimal inhibitory concentrations (MICs) were performed using a broth microdilution technique according to the Clinical and Laboratory Standards Institute (CLSI) guidelines. MICs were determined in MHBCA and in ID-MHBCA. To check the impact of β-lactamases, MICs in the presence of a β-lactamase inhibitor were also determined. The inhibitor was homogenized at 2X the final concentration and added to the bacterial inoculum just before distributing cells into the wells containing the drug dilutions. The final concentration of each inhibitor was 4 μg/mL for clavulanic acid (tested against K. pneumoniae) and 200 μg/mL for 3-aminophenylboronic acid (tested against P. aeruginosa and A. baumannii).

P. aeruginosa 1020 = assay: MIC, parent of efflux pump mutants; type: cell-based, Pseudomonas aeruginosa
Protocol: as §2

[1] = system: P. aeruginosa 2302 MexAB, MexCD, MexEF upregulated; assay: MIC, efflux pump overexpressing strain; type: cell-based, Pseudomonas aeruginosa
Protocol: as §2

PBP1a/1b = assay: Membrane PBP binding assay, competition with Bocillin FL; settings: K. pneumoniae ATCC 13883 membranes
Protocol: (§3) Membrane extracts containing PBPs were obtained as described above. Briefly, all species were grown in 1 L of TSB until the OD600 reached 0.9. The washed pellet was incubated with lysozyme (400 μg/mL), DNase (10 μg/mL) RNase(10 μg/mL) and anti-protease cocktail (200 mg/20 mL). Lysis was done with a French press (20,000 psi) and membrane protein were pelleted by ultracentrifugation steps (100,000 × g). The pellet was suspended in a minimal volume (300–500 μL) of KP 0.05 M buffer at pH 7. The protein concentration in the membrane preparations was determined with the Micro BCA TM Protein Assay Kit (Thermo Fisher Scientific, Rockford, IL) using bovine serum albumin as a standard.
(§4) The PBP binding assay was done as described previously[36],[56],[57]. For each antibiotic concentration tested, a quantity of 25 to 40 μg of membrane preparation was used as the source of PBPs, depending on the species. For the purified PaPBP3, 150 ng was used in the assay. First, increasing concentrations of the test antibiotic was added to the membrane or purified PaPBP3 preparations and incubated for 10 min at 30 °C. The reporter molecule Bocillin FL was then added at 12.5 μM for the membrane PBPs preparations and at 500 nM for the pure PaPBP3 samples for an additional 20 min at 30 °C. All reactions were stopped with the addition of the Laemmli-loading buffer (Bio-Rad) containing fresh β-mercaptoethanol (Sigma). All reactions were then heated at 100°C for 3 min before migration on SDS-polyacrylamide discontinuous gel system (7.5% stacking and 10% separating). Control samples without Bocillin FL were also included to highlight autofluorescent proteins that are not PBPs.
(§5) To be able to visualize labeled PBPs after electrophoresis, gels were rinsed in water and fixed in a solution of 50% methanol and 7% acetic acid for 30 min. The fluorescent images of gels were obtained with the Typhoon FLA 9500 instrument (GE-Healthcare Bio-Sciences Inc., Baie-d’Urfé, QC, CA) using a 473 nm excitation wavelength. To obtain quantifiable data, the software Quantity One 1D analysis was used (version 4.6.6; Bio-Rad Laboratories, Richmond, CA). The volume (intensity × constant area) of each PBP was measured. […] All IC50 data were obtained from at least two independent PBP binding assays using two different sets of compound concentrations using a linear regression. The PBP profiles were confirmed, and the PBP numbering were determined using published data and individual molecular weights. […] For example, amdinocillin (Sigma) was used for PBP2 identification. […] The IC50 for PBP 2 of P. aeruginosa was measured by including the SDS-PAGE comigrating autofluorescent protein in the background, as done previously.

PBP3 = biological target: T1, PBP3 (Pseudomonas aeruginosa, UniProt G3XD46); assay: as above
T1 construct: using bacterial membranes as the source of PBPs; endogenous in cells; host or cells: P. aeruginosa ATCC 27853 membrane preparation
Protocol: as §3, §4, §5

E. coli lptD4213 = assay: MIC, hyperpermeable mutant; type: cell-based, Escherichia coli
Protocol: as §1, §2

E. coli ΔampC = assay: MIC, Keio mutant; type: cell-based, Escherichia coli
Protocol: as §1, §2

[2] = system: P. aeruginosa 1624 ΔmexCD-oprJ, ΔmexEF-oprN; assay: MIC, efflux pump mutant; type: cell-based, Pseudomonas aeruginosa
Protocol: as §2

[3] = system: P. aeruginosa 1625 ΔmexAB-oprM, ΔmexEF-oprN; assay: MIC, efflux pump mutant; type: cell-based, Pseudomonas aeruginosa
Protocol: as §2

[4] = Acinetobacter baumannii, ATCC19606, ID-MHBCA (−), 0 µg/mL supplemental iron, read-out: MIC
[5] = Acinetobacter baumannii, ATCC19606, ID-MHBCA + 0.1 µg/mL supplemental iron, read-out: MIC
[6] = Acinetobacter baumannii, ATCC19606, ID-MHBCA + 1 µg/mL supplemental iron, read-out: MIC
[7] = Acinetobacter baumannii, ATCC19606, ID-MHBCA, + 200 μg/mL APB, read-out: MIC with β-lactamase inhibitor (βI)
[8] = Acinetobacter baumannii, ATCC19606, MHBCA (+), no inhibitor, read-out: MIC
[9] = Acinetobacter baumannii, ATCC19606, MHBCA, + 200 μg/mL APB, read-out: MIC with β-lactamase inhibitor (βI)
[10] = Pseudomonas aeruginosa, P. aeruginosa 1020, read-out: MIC
[11] = P. aeruginosa ATCC 27853 membranes, read-out: IC50 PBP3
[12] = Escherichia coli, LPTD4213, lptD4213, ID-MHBCA (−)
[13] = Escherichia coli, LPTD4213, lptD4213, MHBCA (+)
[14] = ID-MHBCA (−), 0 µg/mL supplemental iron, read-out: MIC
[15] = MHBCA (+), no inhibitor, read-out: MIC

T1 sequence (G3XD46 whole entry): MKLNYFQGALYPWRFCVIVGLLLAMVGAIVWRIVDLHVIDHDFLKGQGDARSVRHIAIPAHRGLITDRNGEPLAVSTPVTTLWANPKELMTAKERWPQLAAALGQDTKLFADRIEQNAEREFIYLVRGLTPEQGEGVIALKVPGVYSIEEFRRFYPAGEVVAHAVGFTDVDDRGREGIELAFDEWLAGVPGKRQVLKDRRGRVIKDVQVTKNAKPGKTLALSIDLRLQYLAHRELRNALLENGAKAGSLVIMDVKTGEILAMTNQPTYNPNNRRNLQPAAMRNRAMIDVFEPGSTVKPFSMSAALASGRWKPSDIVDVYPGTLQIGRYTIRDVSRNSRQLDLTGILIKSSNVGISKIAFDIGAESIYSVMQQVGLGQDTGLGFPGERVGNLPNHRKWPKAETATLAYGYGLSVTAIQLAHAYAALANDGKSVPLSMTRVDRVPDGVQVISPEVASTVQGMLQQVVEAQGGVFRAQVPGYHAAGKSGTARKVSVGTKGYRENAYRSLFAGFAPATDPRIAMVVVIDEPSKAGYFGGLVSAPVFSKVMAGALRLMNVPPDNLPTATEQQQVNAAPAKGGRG

SMILES	MIC (A. baumannii ATCC 19606; [4]) [µM]	MIC (A. baumannii ATCC 19606; [5]) [µM]	MIC (A. baumannii ATCC 19606; [6]) [µM]	MIC (A. baumannii ATCC 19606; [7]) [µM]	MIC (A. baumannii ATCC 19606; [8]) [µM]	MIC (A. baumannii ATCC 19606; [9]) [µM]	MIC ratio 0/1 (A. baumannii ATCC 19606; ID-MHBCA)	MIC ratio 1/0 (A. baumannii ATCC 19606; ID-MHBCA)	MIC in combination with PAβN (A. baumannii ATCC 19606; MHBCA) [µM]	MIC ([1]; Pseudomonas aeruginosa) [µM]	IC50 (PBP1a/1b) [µM]	IC50 (PBP3; [11]) [µM]	MIC (E. coli lptD4213; [12]) [µM]	MIC (E. coli lptD4213; [13]) [µM]	MIC (E. coli ΔampC; Escherichia coli, ID-MHBCA) [µM]	MIC (E. coli ΔampC; Escherichia coli, MHBCA) [µM]	MIC ([2]; Pseudomonas aeruginosa) [µM]	MIC ([3]; Pseudomonas aeruginosa) [µM]	MIC (A. baumannii ATCC 19606; [14]) [µM]	MIC (A. baumannii ATCC 19606; [15]) [µM]	further results
O=C(CCC(=O)N(CCCCNC(=O)c1cccc(O)c1O)CCCNC(=O)c1cccc(O)c1O)NCCCCCN(O)C(=O)CCCC(=O)NC(C(=O)NC1C(=O)N2C(C(=O)O)=C(Cl)CSC12)c1ccccc1 (centres unmarked) [MCEF, mixed ligand bis-catechol-mono-hydroxamate-cefaclor]	0.2 (≈ 0.216 µg/mL)	1.6	> 6.3	0.012	1.6 (≈ 1.73 µg/mL)	0.4	> 32	> 32	> 6.3	> 100	0.35 ± 0.02	2.01 ± 0.48	1.6 (≈ 1.73 µg/mL)	1.6 (≈ 1.73 µg/mL)	> 200	13 (≈ 14.1 µg/mL)	> 100	> 100	–	–	MIC ratio unconjugated β-lactam/conjugate (A. baumannii ATCC 19606; ID-MHBCA): >1024; MIC ratio unconjugated β-lactam/conjugate (A. baumannii ATCC 19606; MHBCA): >128; MIC (P. aeruginosa 1020; [10]): > 100 µM
N[C@@H](C(=O)N[C@@H]1C(=O)N2C(C(=O)O)=C(Cl)CS[C@H]12)c1ccccc1 [CEF, cefaclor, reference compound]	> 200	–	> 200	> 200	> 200	> 200	–	–	> 200	> 200	7.9 ± 1.5	39 ± 1.5	3.1 (≈ 1.14 µg/mL)	3.1 (≈ 1.14 µg/mL)	3.1 (≈ 1.14 µg/mL)	3.1 (≈ 1.14 µg/mL)	> 200	> 200	>200	>200	MIC (P. aeruginosa 1020; Pseudomonas aeruginosa, 1020): > 200 µM
O=C(CN(CCCCNC(=O)c1cccc(O)c1O)C(=O)c1cccc(O)c1O)NC(C(=O)NC1C(=O)N2C(C(=O)O)=C(Cl)CCC12)c1ccccc1 (centres unmarked) [BLOR, bis-catechol (azotochelin)-loracarbef]	0.024 (≈ 0.018 µg/mL)	0.1	0.4	0.012	0.05 (≈ 0.0375 µg/mL)	0.012	16	16	> 6.3	13 (≈ 9.75 µg/mL)	0.43 ± 0.17	3.2 ± 0.1	0.006 (≈ 0.0045 µg/mL)	0.006 (≈ 0.0045 µg/mL)	0.006 (≈ 0.0045 µg/mL)	0.006 (≈ 0.0045 µg/mL)	6.3 (≈ 4.73 µg/mL)	6.3 (≈ 4.73 µg/mL)	–	–	MIC ratio unconjugated β-lactam/conjugate (A. baumannii ATCC 19606; MHBCA): >4096; MIC (P. aeruginosa 1020; [10]): 6.3 µM (≈ 4.73 µg/mL); IC50 value ratio βL/SID-βL, PBP3 (PBP3; P. aeruginosa ATCC 27853, membrane): > 16
N[C@@H](C(=O)N[C@@H]1C(=O)N2C(C(=O)O)=C(Cl)CC[C@H]12)c1ccccc1 [LOR, loracarbef, reference compound]	–	–	–	–	–	–	–	–	> 200	–	4.5 ± 2.1	> 50	–	–	–	–	–	–	>200	>200	MIC (A. baumannii ATCC 19606; ID-MHBCA + 1 µg/mL supplemental iron, read-out: MIC): > 200 µM; MIC (A. baumannii ATCC 19606; ID-MHBCA, + 200 μg/mL APB, read-out: MIC with β-lactamase inhibitor (βI)): >200 µM; MIC (A. baumannii ATCC 19606; MHBCA, + 200 μg/mL APB, read-out: MIC with β-lactamase inhibitor (βI)): >200 µM; MIC (P. aeruginosa 1020; P. aeruginosa 1020, read-out: MIC): > 200 µM; MIC ([1]; P. aeruginosa 2302): > 200 µM; MIC (E. coli lptD4213; lptD4213, ID-MHBCA (−)): 1.6 µM (≈ 0.56 µg/mL); MIC (E. coli lptD4213; lptD4213, MHBCA (+)): 1.6 µM (≈ 0.56 µg/mL); MIC (E. coli ΔampC; ID-MHBCA): 3.1 µM (≈ 1.08 µg/mL); MIC (E. coli ΔampC; MHBCA): 3.1 µM (≈ 1.08 µg/mL); MIC ([2]; P. aeruginosa 1624): > 200 µM; MIC ([3]; P. aeruginosa 1625): > 200 µM
CC1(C)S[C@@H]2[C@H](NC(=O)[C@H](N)c3ccccc3)C(=O)N2[C@H]1C(=O)O [AMP, ampicillin, reference compound]	> 200	–	> 200	> 200	> 200	> 200	–	–	> 200	> 200	8 ± 1	–	0.4 (≈ 0.14 µg/mL)	0.4 (≈ 0.14 µg/mL)	6.3 (≈ 2.2 µg/mL)	6.3 (≈ 2.2 µg/mL)	> 200	> 200	>200	>200	MIC (P. aeruginosa 1020; Pseudomonas aeruginosa, 1020): > 200 µM; IC50 (PBP3): 0.24 ± 0.08 µM; MIC (E. coli lptD4213; lptD4213, MHBCA (+)): 0.4 µM (≈ 0.14 µg/mL)
